Data on 1 substance can be found in US11198897B2, “Rapid antibiotic susceptibility testing by tracking sub-micron scale motion of single bacterial cells” (Arizona Board of Regents on behalf of Arizona State …, priority 2017, dated 2021).

The subject of assay [1] is UPEC cells spiked in human urine. Put plainly: Culture AST: bactericidal activity against UPEC in spiked urine samples by plating on Luria agar. Format: cell-based, uropathogenic E. coli. The procedure:
(§1) Broth microdilution assay was used to determine the polymyxin B MIC and MBC following a standard protocol.^54 Exponential phase UPEC CFT073 cultures were grown as described above, and bacterial suspensions (1×10^8 cfu/ml) were prepared in Mueller Hinton broth. Bacterial suspensions (100 μl of 5×10^6, 10^7, or 10^8 cfu/ml) were added to wells of 96-well microtiter plates containing polymyxin B (0.125-8 μg/ml). The MIC was determined by measuring the absorbance at 600 nm after 16 h standing incubation at 37° C. Cell viability and MBC values were determined by plating duplicate 10-fold serial dilutions for each sample onto Luria Broth agar plates and enumerating colonies after 16 h incubation at 37° C.
Referring now to FIG. 17A-FIG. 17F plots of bactericidal activity of polymyxin B against UPEC in spiked urine samples are shown. UPEC cells were added to human urine samples and exposed to different polymyxin B concentrations. At indicated times, 5 μl of each suspension was inoculated onto Luria agar. After incubation at 37° C. for 16 h, colonies were enumerated and recorded as cfu/ml. The bars with vertical striping represent the initial cfu/ml of UPEC cells in urine, and bars with horizontal striping represent cfu/ml of UPEC cells upon exposure to clinically-relevant concentrations of polymyxin B (antibiotics added immediately after the baseline measurement) in urine.

In the next assay the test system is UPEC CFT073. Put plainly: Broth microdilution assay (MIC, MBC) in Mueller Hinton broth. The assay is classed as cell-based, uropathogenic E. coli. The procedure:
as §1
Referring now to FIG. 15, a plot measuring inhibition of UPEC in Mueller Hinton broth (MHB) after incubation with increasing polymyxin B concentrations is shown. Growth inhibition of UPEC in Mueller Hinton broth (MHB) after incubation with increasing polymyxin B concentrations. UPEC cells (5×10^6/ml) were incubated in MHB for 16 h at 37° C., followed by optical density measurements (OD600). Average and standard deviation OD600 measurements collected from triplicate experiments were plotted.
Referring now to FIG. 16, a table illustrating growth inhibition and bactericidal activity of the antibiotic polymyxin B is shown. After determining growth inhibition after […]
A general note: In broth dilution the organism is exposed to a series of concentrations in liquid medium.

A further assay concerns E. coli O157:H7. As to the kind of experiment: Sub-μm motion tracking of antibody-tethered E. coli O157:H7 cells exposed to antibiotic. The following applies: for Distance (root-mean-square displacement of cell center over 20 sec) of a single cell: 0.5 mg/ml polymyxin B. Format: cell-based, Escherichia coli. The source says: Referring now to FIG. 2A an image of an E. coli O157:H7 bacterial cell with superimposed motion of the cell center over 20 sec shown as darkened dots is shown. E. coli O157:H7 cells 202 tethered to the glass slide were imaged. […] Scale Bar 203 is 1 μm. 43 The center of each bacterial cell was identified in each image frame (described in more detail below with reference to FIG. 6A-FIG. 6D) and plotted as data points 204 in FIG. 2A′.
As there shown, plot 202 plots motion data 204 in nm in X and Y coordinates ranging from −400 nm to 400 nm. The center positions of the bacterial cell (center) at different moments are shown and reveal the sub-μm scale motion of the cell. For quantitative analysis of the sub-μm motion of the bacterial cell, “Distance” is defined as the root-mean-square of the position over 20 seconds. Note that the motion ranges from about −200 nm to 200 nm displacement along both coordinates.
Referring now to FIG. 3A, images of a bacterial cell and displacement of the cell center in 1×PBS before (0 min) and after polymyxin B addition (2 and 5 min) are shown. Images 301, 302, 303 of a bacterial cell and displacement of the cell center 310 in 1×PBS before (0 min) and after polymyxin B addition (2 and 5 min). Antibiotic effects on the sub-μm motion were examined using a lethal dose of polymyxin B (0.5 mg/ml). Images 301, 302, 303 show the bright-field images of an alive bacterial cell before, 2 min, and 5 min, respectively after exposure to 0.5 mg/ml polymyxin B, where the positions of the bacterial cell before and after the exposure to polymyxin B, represented by indicia 310, 310A and 310B respectively. Scale bar 311 is set at 1 μm. #, p=0.065.
The average E. coli O157:H7 distance over 20 sec. in 1×PBS was 278 nm as indicated by bar 350, which reduced to 225 nm within 2 min after addition of 0.5 mg/ml polymyxin B, indicated by bar 352 and further to 65 nm at 5 min post-antibiotic exposure as plotted in plot 324 and represented by bar 354.
A robust AST method must work for a bacterial population that contains a mixture of loosely and tightly bound cells. […] For this mixed population of bound cells, the DAVG was 265 nm (FIG. 3C) before the addition of polymyxin B and dropped to 123 nm at 10 min post-antibiotic exposure (FIG. 3D).
Clean BK7 glass coverslips were coated with 1.5 nm chromium and 48 nm gold and used as sensing chips. The chips were rinsed with deionized water and ethanol multiple times followed by drying with nitrogen gas and cleaning with a hydrogen flame. For antibody surface, the cleaned chips were submerged in 1 mM PEG/PEG-COOH ethanol solution and left in the dark for 24 h to coat a PEG/PEG-COOH self-assembled monolayer (SAM) on each chip. The PEG/PEG-COOH SAM-coated chips were activated with 500 μl of a freshly prepared mixture of 0.1 M NHS and 0.4M EDC in 1:1 ratio to produce NHS ester receptors, which react with the primary amine groups on the antibodies via an amide bond. Chips with activated PEG/PEG-COOH SAM were cleaned with deionized water and blown dry with nitrogen gas. […]
(§2) To quantify bacterial motion, region props MATLAB command was used to obtain the “Centroid” 603 for each segmented cell in the binary images. The centroid is the X and Y coordinates of the bacterial cell center and is calculated as the mean of all non-zero pixels which the bacterial cell occupies. […]

A further assay has as its system UPEC cells. Put plainly: Rapid AST by motion tracking (DAVG) of APTES-tethered UPEC cells in 1×PBS. The assay is classed as cell-based, uropathogenic E. coli. The protocol: To apply the above motion-tracking method to AST of the clinically relevant UPEC strain, UPEC cells were tethered to the glass surface via APTES surface chemistry and conjugation to the amine group of a bacterial surface protein. Antibiotic dose-dependent experiments were performed in a multiplexed format using multi-well slides and a 40× objective. First, baseline images were captured at 0 min for each well. Subsequently, polymyxin B at clinically relevant concentrations (4, 2, 0.5, and 0.25 μg/ml) was added to different wells, and images were recorded at 15 min intervals for 75 min. Finally, as a positive control, a bactericidal dose (0.5 mg/ml) of polymyxin B was added to all wells, and images were recorded after incubation for 15 min (at 90 min). The control well (Well 1) initially harbored 100 tethered cells (as described below with reference to FIG. 8A) with an initial DAVG of 228 nm (FIG. 4A). Over time (0-75 min), the number of cells on the surface increased gradually (as described below with reference to FIG. 8A) due to replication of the surface-tethered cells (as described below with respect to FIG. 9A-10B). During the first 15 min, DAVG increased from 228 nm to 388 nm, followed by a gradual decrease from 388 to 227 nm over 75 min (FIG. 4A). […] DAVG vs. time was analyzed for polymyxin B varying between 0.5-4 μg/ml (FIG. 4B-FIG. 4E), showing clear correlation between the sub-μm motion and antibiotic concentration. […]
All E. coli O157:H7 experiment image sequences were collected at 106 fps at a pixel resolution of 640×480 using the Pike-032B CCD camera. […] The stage was translated to each well sequentially at the marker spot area and recorded 5 sec image sequences for each well. […]
as §2

For assay [2], the system named is UPEC cells in human urine. Put plainly: Rapid AST by motion tracking (DAVG) of UPEC cells in human urine samples. The assay is classed as cell-based, uropathogenic E. coli. The protocol:
Referring now to FIG. 5A-5F, plots of DAVG of UPEC cells in human urine exposed to increasing concentrations of polymyxin B are there illustrated. UPEC cells (5×10^6 cfu/ml) were added to human urine samples, and DAVG was determined over time in the absence and presence of clinically-relevant concentrations of polymyxin B. The bars with vertical striping represent the baseline DAVG measurement of UPEC cells in urine. DAVG measurement of UPEC cells upon exposure to clinically-relevant concentrations of polymyxin B (bars with horizontal striping; antibiotics added immediately after the baseline measurement) and a high, bactericidal concentration of polymyxin B (bars with diagonal striping, 0.5 mg/ml added after the 90-min measurement). DAVG of cells in wells with (a) 0, (b) 0.25, (c) 1, (d) 2, (e) 4, and (f) 8 μg/ml of polymyxin B. *, p<0.05; ns, not significant.
To test the feasibility of an example of a method for analyzing clinically relevant samples, urine samples collected from healthy patients were spiked with UPEC bacterial cells. Following surface tethering, images were recorded from six different wells with polymyxin B doses varying from 0 to 8 μg/ml.
By repeating these experiments with increasing concentrations of UPEC cells in urine samples, the polymyxin B MBC90 min was determined to be between 4 and 8 μg/ml (Table 1). These MBC data corroborated the previous experiments with 5×10^6 cfu/ml and standard culturing methods which proceeded for 16 h (see also FIG. 17A-FIG. 17F).
An aliquot of frozen E. coliO157:H7 or E. coli CFT073 strain was thawed and used to inoculate 3 ml of Luria broth (LB) one day before the experiments. The overnight, saturated culture grown at 37° C. was diluted into fresh LB at a concentration of ˜10^7 cfu/ml and grown at 37° C. with gentle rotary mixing until the cultures reached an OD600 of 0.56, indicating the mid-logarithmic phase of growth. The corresponding concentration of the bacteria was 4.67×10^8 cfu/ml. Bacterial cells were collected by centrifugation at 2000×g for 15 min and resuspended in 1 ml PBS (1×) to an OD of 0.56. […]

Where [3] appears, read: after addition of 0.5 mg/ml polymyxin B.

As for polymyxin B, the “Colonies on Luria agar after bactericidal concentration” value in assay [1] (0.5 mg/ml added after the 90-min measurement, additional 15-min incubation) is given as “no colonies were detected”. Also, in assay [1] (plating on Luria agar, 16 h at 37° C.), the “MBC against UPEC cells spiked in human urine” value was found to be 2 µg/mL. Besides, the “Standard incubation (16 h) MBC” value in the assay with UPEC CFT073 (quantitative plating after 16 h incubation) is 2 µg/mL. The “Minimum inhibitory concentration (MIC)” value with UPEC CFT073 (standard microdilution broth assay, 16 h incubation) is 1 µg/mL. In the assay with E. coli O157:H7 (2 min after addition, 278 nm in 1×PBS before), the “Distance (root-mean-square displacement of cell center over 20 sec) of a single cell” value came to 225 nm. Besides, in the assay with E. coli O157:H7 (5 min post-antibiotic exposure, 278 nm before), the “Distance (root-mean-square displacement of cell center over 20 sec) of a single cell” value worked out at 65 nm. Also, the “Viable cells on overnight culturing after exposure” value in the assay on E. coli O157:H7 (5 min exposure to lethal dose 0.5 mg/ml) is listed as “no viable cells”. Further, in the assay on E. coli O157:H7 (setting [3]), the “DAVG change of completely tethered bacterial cells” value was “no change” and the “DAVG change of loosely tethered bacterial cells” value is given as “significant decrease”. Also, the “DAVG after lethal polymyxin B concentration” value in the assay on UPEC cells (control well, 0.5 mg/ml added after 75-min measurement, 227 nm before, p<0.05) turned out to be 64 nm. Moreover, the “Number of cells on the surface over 75 min” value with UPEC cells (polymyxin B 0.5-4 μg/ml, indicating growth inhibition) is given as “remained constant”. Moreover, in the assay on UPEC cells (rapid AST, 75 min, 1×PBS), the “Minimum bactericidal concentration at 75 min (MBC75 min)” value worked out at 4 µg/mL. In addition, the “DAVG change in urine” value in assay [2] (4 and 8 μg/ml polymyxin B, p<0.05, to values similar to lethal 0.5 mg/ml dose) is reported as “decreased significantly”. Besides, the “DAVG change over time in urine” value in assay [2] (90 min incubation with 0.25, 1, or 2 μg/ml polymyxin B) was “either remained unchanged or increased”. Also, the “Rapid AST MBC 90 min” value in assay [2] (UPEC concentration in urine 10^8 cfu/ml) came to 4 µg/mL.
